Measured values as given in patent publication US10426751B2, “Allosteric activators for treatment of phenylketonuria” (MCMASTER UNIVERSITY, priority 2015, dated 2019).
Changes are numbered by the printed parent chain. “Also recorded” adds a separate entry of the source.

What was measured:
Plasmodium falciparum = conditions: read-out: IC50 (competitive inhibitor); cited from earlier work
WT-PAH [1] = target: T1, WT-PAH (Homo sapiens, UniProt P00439); experiment: Chaperone (refolding) assay: PAH activity after dilution from 6.0 M to 0.5 M GndCl; assay type: biochemical; conditions: for chaperone activity upon refolding (in words): ligand 20 μM
T1 construct: made in house; the paragraph itself says 'eukaryotic cell cultures' (pMAL vector, Martinez laboratory, University of Bergen)
T1 sequence (P00439 1-452): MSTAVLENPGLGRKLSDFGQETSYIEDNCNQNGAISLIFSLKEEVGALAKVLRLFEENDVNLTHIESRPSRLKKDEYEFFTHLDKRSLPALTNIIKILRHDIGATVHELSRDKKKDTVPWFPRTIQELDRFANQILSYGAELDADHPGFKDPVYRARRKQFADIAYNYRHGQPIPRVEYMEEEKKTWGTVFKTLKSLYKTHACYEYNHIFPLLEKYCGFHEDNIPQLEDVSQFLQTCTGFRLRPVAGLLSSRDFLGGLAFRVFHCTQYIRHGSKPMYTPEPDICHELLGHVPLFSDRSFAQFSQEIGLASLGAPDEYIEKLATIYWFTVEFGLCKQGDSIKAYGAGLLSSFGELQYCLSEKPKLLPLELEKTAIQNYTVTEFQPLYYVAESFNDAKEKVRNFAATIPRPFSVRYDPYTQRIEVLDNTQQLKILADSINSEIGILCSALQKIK
Description: (§1) For instance, a recovery of 50% of residual enzyme activity was achieved without ligand when PAH was incubated in 8.0 M urea after its dilution to 0.5 M urea to trigger protein refolding. In order to further reduce enzyme reversibility, the recovery of PAH activity was subsequently assessed when it was incubated using 6.0 M GndCl for 10 min and subsequently diluted to 0.5 M GndCl in the presence or absence of screen-positive ligands (20 μM) in enzyme reaction buffer with PAH activity measurements performed by CE as described previously. […] Two lead compounds and several analogs of SA were subsequently tested using two different mutants of PAH (I65T and R261Q) without chemical denaturants after the two-tiered screening.

beta-amyloid peptide = conditions: cited from earlier work
WT-PAH [2] = target: T1, WT-PAH; experiment: Primary screen (READ): ligand-induced stabilization of PAH activity in 8 M urea, Tyr formation by CE-UV; assay type: biochemical; conditions: ligand 20 μM; for stabilization / enhancement effect on PAH activity (in words): denaturing conditions
Description: (§2) Tetrameric human phenylalanine hydroxylase (PAH) enzyme kinetic assays were performed off-line under standardized conditions prior to quantification of Tyr formation by CE with UV detection. Enzyme assays were performed by first mixing together Phe (1 mM), catalase (100 nM) and PAH (0.25 μM/subunit) in a reaction buffer (20 mM HEPES and 200 mM NaCl, pH 7.0) that were equilibrated at 25° C. for 4 min. Then, ferrous (Fe^2+) ammonium sulfate (100 μM) was added to the solution for 1 min and the reaction was subsequently initiated by addition of BH4 ([…]) with DTT (5 mM) using a total volume of 100 μL. The reaction mixture was then vortexed for 60 s followed by sonication for 2 min prior to centrifugation for 10 s at 4 g and storage in a refrigerator (+4° C.). An aliquot (20 μL) was withdrawn from the quenched enzyme reaction and placed in a micro vial containing Me-Tyr as IS (100 μM) prior to CE analysis. The stability of the quenched enzyme reaction was confirmed by intermittent analysis of PAH activity over 6 h at room temperature, and no significant changes in the Tyr/IS or Phe/Tyr response ratio were measured. Enzymatic reactions were performed for both WT-PAH and two PAH mutants by pre-equilibrating each ligand for 10 min prior to addition of ferrous ion and BH4/DDT as described in enzyme reaction protocol in order to assess for ligand-induced PAH inhibition or activation.
Unlike thermal stability assays that can induce protein aggregation, chemical denaturants are more suitable as perturbants to promote unfolding and enzyme inactivation while solubilizing multimeric proteins. In this context, restoration of enzyme activity upon denaturation (READ) was first introduced to characterize PCs that stabilize yet enhance the activity of a lysosomal enzyme, β-glucocerebrosidase (GCase). Herein, READ was modified, further optimized and validated for primary screening of PCs for the cytosolic enzyme (PAH) using a chemical library containing structurally unique compounds with drug-like activity. For instance, the primary screen was used to measure ligand-induced stabilization of PAH by extrinsic small molecules that impart greater resistance to urea unfolding as compared to ligand-free apo-enzyme conditions. PAH activity was first examined as a function of urea concentration (0 to 8 M) and pre-equilibration time (10 min to 2 hr) in order to determine optimum conditions where residual enzyme activity was largely attenuated below 10% due to protein unfolding. Protein unfolding was performed in triplicate offline with the enzyme reaction buffer (20 mM HEPES and 200 mM NaCl, pH 7.0) using tetrameric human PAH (1 μM and/or 0.1 μM) or mutant PAH (1 μM and/or 0.1 μM) incubated 10 min in 0 M or 8 M urea in the presence or absence of ligand (20 μM). Dose-response studies (0, 2.0 and 20 μM) were subsequently performed in triplicate on screen-positive compounds using re-synthesized ligands in order to further validate initial screen results. In all cases, quenched enzyme reactions were processed as described previously prior to CE analysis. PAH activity measurements based on Tyr formation at 8M urea with the presence or absence of PC were normalized to 0 M urea for each aliquot enzyme reaction to minimize long-term variation, which also enables direct comparison of the ligand-induced stabilization activity under denaturing conditions (8M urea) while confirming inhibition and activation effects for ligands under native conditions (0 M urea).

R261Q PAH mutant = target: T2, R261Q PAH mutant (Homo sapiens, UniProt P00439, R261Q); experiment: PKU-mutant activity enhancement without chemical denaturants, CE-UV; assay type: biochemical; conditions: ligand 20 μM, no denaturant
T2 construct: made in house; the paragraph itself says 'eukaryotic cell cultures' (pMAL vector)
T2 sequence (P00439 1-452 R261Q): T1 sequence (P00439 1-452) with R261Q
Description: Expression of recombinant human WT-PAH and two PAH mutants ([…]) as fusion protein with maltose-binding protein in […] using pMAL expression vector was performed by the Martinez laboratory at the University of Bergen as described in Svebak et al., Biochem. J., 1995, 306, 589-597. Briefly, purification of the fusion proteins expressed in the pMAL vector system was performed using affinity chromatography followed by size-exclusion chromatography to remove low molecular weight components. Subsequently, the fusion proteins were cleaved by the restriction protease factor Xa and then phosphorylated by cyclic adenosine monophosphate (cAMP)-dependent protein kinase. The two clinically relevant PAH mutants, I65T and R261Q comprise single-point mutations in the regulatory and catalytic domain, respectively which are associated with highly variable phenotypes ranging from mild to classical PKU. For instance, patients with R261Q genotypes are reported to have inconsistent responses to BH4 therapy. In this work, I65T and R261Q PAH mutants were measured to have residual catalytic activities of (35±1)% and (5±0.5)% relative to WT PAH under standardized conditions (i.e., enzyme concentrations, assay buffer etc.), respectively. Stock solutions of WT-PAH and PAH mutants were prepared in enzyme reaction buffer (20 mM HEPES pH 7.0, 200 mM NaCl), and divided into separate 10 μL aliquots in 0.5 mL sterilized centrifuge tubes prior to storage at −80° C. Note that all enzyme assays were performed on aliquots of frozen enzymes thawed slowly in the fridge prior to daily use.
as §2, §1

WT-PAH [3] = target: T1, WT-PAH; experiment: PAH enzyme activity under native conditions (0 M urea), ligand-induced inhibition or activation; assay type: biochemical; conditions: ligand 20 μM
Description: as §2, with “An aliquot (20 μL) was withdrawn from the quenched enzyme reaction and placed in a micro vial containing Me-Tyr as IS (100 μM) prior to CE analysis.” left out, “Enzymatic reactions were performed for both WT-PAH and two PAH mutants by pre-equilibrating each ligand for 10 min prior to addition of ferrous ion and BH4/DDT as described in enzyme reaction protocol in order to assess for ligand-induced PAH inhibition or activation.” left out
Unlike thermal stability assays that can induce protein aggregation, chemical denaturants are more suitable as perturbants to promote unfolding and enzyme inactivation while solubilizing multimeric proteins. In this context, restoration of enzyme activity upon denaturation (READ) was first introduced to characterize PCs that stabilize yet enhance the activity of a lysosomal enzyme, β-glucocerebrosidase (GCase). […]

SMILES | chaperone activity upon refolding (in words) (WT-PAH [1]) | stabilization / enhancement effect on PAH activity (in words) (WT-PAH [2]) | further results
O=C(O)C1=CC(O)C(O)C(O)C1F (stereo not drawn) [6-fluoro-shikimate] | – | – | IC50 (Plasmodium falciparum): 15 µM
O=C(O)C1=CC(=O)[C@@H](O)[C@H](O)C1 [DSA, 3-dehydroshikimic acid] | abolishes the chaperone activity | – | –
CCOC(=O)C1=C[C@@H](O)[C@@H](O)[C@H](O)C1 [ESA, ethoxyshikimate] | abolishes the chaperone activity | – | –
O=C(O)c1cc(O)c(O)c(O)c1 [GA, gallic acid] | destabilizes and reduces the activity of WT-PAH upon refolding | – | oligomerization of beta-amyloid peptide (in words) (beta-amyloid peptide): inhibits oligomerization of beta-amyloid peptide
O=C(O)C1(O)C[C@@H](O)C(O)[C@H](O)C1 (stereo partly drawn) [QA, D-quinic acid] | significantly restored; also recorded: chaperone activity | exhibits PAH stabilization | –
O=C(O)C1=C[C@@H](O)[C@@H](O)[C@H](O)C1 [SA, (3R,4S,5R)-3,4,5-trihydroxycyclohex-1-ene-1-carboxylic acid] | significantly restored | – | residual activity of WT-PAH after refolding (WT-PAH [1]; without ligand (7±0.5) %): ~38±2%; activity enhancement of R261Q PAH mutant (R261Q PAH mutant): 3-5 fold; activity enhancement of R261Q PAH mutant (R261Q PAH mutant; listed as HCH): 5 fold; inhibition or activation of WT-PAH under native conditions (in words) (WT-PAH [3]): weak activation effects; also recorded: lack of SA inhibitory effects; PAH residual activity (% of WT-PAH) (WT-PAH [2]; 8 M urea, ligand-free enzyme (7±0.5) %): 16%

Further lines, with some results ahead:

chaperone activity upon refolding (in words) (WT-PAH [1]) | stabilization / enhancement effect on PAH activity (in words) (WT-PAH [2]) | SMILES | further results
– | no enhancement effect | Nc1c(Br)cc(Br)cc1CN[C@H]1CC[C@H](O)CC1 [ambroxol] | –
– | no enhancement effect | COc1ccc([C@@H]2Sc3ccccc3N(CCN(C)C)C(=O)[C@@H]2OC(C)=O)cc1 [diltiazem] | –
– | no enhancement effect | OCCN1CCN(CCCN2c3ccccc3Sc3ccc(C(F)(F)F)cc32)CC1 [fluphenazine] | –
– | no enhancement effect | OC[C@H]1CNC[C@@H](O)[C@@H]1O [isofagomine] | –
– | no significant activity | O[C@H]1[C@H](O)[C@@H](O)[C@H](O)[C@@H](O)[C@H]1O [myo-inositol] | –
